{"source": "patent EP2792360A1", "about": "“(1aR,12bS)-8-cyclohexyl-11-fluoro-N-((1-methylcyclopropyl)sulfonyl)-1a-((3-methyl-3,8-diazabicyclo[3.2.1]oct-8-yl)carbonyl)-1,1a,2,2b-tetrahydrocyclopropa[d]indolo[2,1-a][2]benzazepine-5-carboxamide for use in treating HCV” (IP Gesellschaft für Management mbH, priority 2013, dated 2014)", "key": {"[1]": {"assay": "Relative stability (non-competitive and competitive interconversion) experiments of crystal forms of Compound 1", "conditions": "pXRD, DSC, 1H-NMR", "description": "For the non-competitive experiments, only a single starting crystal form was used to study the potential conversion to another more stabb form. […] The slurry was cooled to 25-30 °C, filtered, suction dried for 1 hour and dried in a vacuum oven at 70 °C and 8 kPa absolute pressure for 12 hours. […] The slurry was cooled to 25-30 °C, filtered, suction dried for 1 hour and dried in a vacuum oven at 70 °C and 8 kPa absolute pressure for 12 hours. […] The slurry was cooled to 25-30 °C, filtered, suction dried for 1 hour and dried in a vacuum oven at 70 °C and 8 kPa absolute pressure for 12 hours."}, "[2]": {"assay": "Characterization of scale-up HCl Pattern 2 (Tables 16-17)", "assay_type": "physicochemical", "conditions": "for TGA heat / cool experiments: IC / TGA heat / cool experiments: XRPD: cooled and re-analysed; for solubility thermodynamic: thermodynamic from solid"}, "[3]": {"assay": "VT-XRPD / VH-XRPD / drying stability of HCl salt forms of Formula V", "description": "The humidity was controlled by mixing streams of dry and wet nitrogen, with a total flow rate of 200 mL.min-1 The relative humidity was measured by a calibrated Rotronic probe (dynamic range of 1.0 - 100%RH), located near the sample. The weight change (mass relaxation) of the sample as a function of %RH was constantly monitored by the microbalance (accuracy ±0.005 mg). Approximately 5 - 20 mg of sample was placed in a tared mesh stainless steel basket under ambient conditions. […] A moisture sorption isotherm was performed as outlined below (2 scans giving 1 complete cycle). […] Data analysis was undertaken in Microsoft Excel using DVS Analysis Suite v6.0.0.7. […] XRPD: X-Ray Powder Diffraction patterns were collected either on a Bruker AXS C2 GADDS diffractometer or a Bruker AXS D8 diffractometer. […] The beam divergence, i.e. the effective size of the X-ray beam on the sample, was approximately 4 mm. […] In a typical experiment, the sampleis exposed to the X-ray beam for 120 seconds. The software used for data collectionwas GADDS for WNT 4.1.16 and the data were analyzed and presented using Diffrac PlusEVA vl 1.0.0.2 or vl3.0.0.2. Ambient conditions: Samples run under ambient conditions were prepared as flat plate specimens using powder as received without grinding. Approximately 1 - 2 mg of the sample was lightly pressed on aglass slide to obtain a flat surface. Non-ambient conditions: Samples run under non-ambient conditions were mounted on a silicon wafer with heat-conducting compound. The sample was then heated to the appropriate temperatureat 10.C.min_1and subsequently held isothermally for 1 minute before data collection was initiated. On a Bruker D8 diffractometer, the following parameters were used: Cu Ka radiation (40 kV, 40 mA), θ - 20 goniometer, and divergence of V4 and receiving slits, a Ge monochromator and a Lynxeye detector. […] The software used for data collection was Diffrac Plus XRD Commander v2.5.0 and the data were analyzed and presented using Diffrac Plus EVA vl 1.0.0.2 or vl3.0.0.2. Samples were run under ambient conditions as flat plate specimens using powder as received. The sample was gently packed into a cavity cut into polished, zero-background (510) silicon wafer. The sample was rotated in its own plane during analysis. The details of the data collection are: · Angular range: 2 to 42°2Θ, · Step size: 0.05°2Θ, · Collection time: 0.5 s/step."}, "[4]": {"assay": "Gravimetric vapour sorption (GVS) of salts of Formula V", "assay_type": "physicochemical"}, "[5]": {"assay": "Polymorphism assessment of HCl Pattern 2 (heat/cool cycles in solvents, XRPD)", "assay_type": "physicochemical", "text": ". […] Table 18. Results from the polymorph assessment"}, "[6]": {"assay": "Salt form assessment of the tosylate salt (chemical stability, disassociation, aqueous solubility)", "assay_type": "physicochemical"}, "[7]": {"conditions": "non-competitive, refluxed in deionized water at about 95 °C for 3 hours, TGA"}}, "note": "Entries after “also recorded” stand apart in the source; their conditions may differ. Where a name gives a salt, the structure may show the parent alone. Read-outs that look alike come from different tables or passages of the source.", "data": [{"compound": "COc1ccc(Cl)c(S(=O)(=O)NC(=O)c2cn3cc(C(F)(F)F)cc(Cl)c3n2)c1", "note": "[Form B ({drug1b}), 8-chloro-N-[(2-chloro-5-methoxyphenyl)sulfonyl]-6-(trifluoromethyl)-imidazo[1,2-a]pyridine-2-carboxamide]", "values": [{"measurement": "crystal form of the resulting material", "setting": "[1]; [7]", "result": "Form A"}]}, {"compound": "COc1ccc(Cl)c(S(=O)(=O)NC(=O)c2cn3cc(C(F)(F)F)cc(Cl)c3n2)c1", "note": "[Form D ({drug1d}), 8-chloro-N-[(2-chloro-5-methoxyphenyl)sulfonyl]-6-(trifluoromethyl)-imidazo[1,2-a]pyridine-2-carboxamide]", "values": [{"measurement": "crystal form of the resulting material", "setting": "[1]; [7]", "result": "Form A"}]}, {"compound": "COc1ccc(Cl)c(S(=O)(=O)NC(=O)c2cn3cc(C(F)(F)F)cc(Cl)c3n2)c1", "note": "[Form TS ({drug1e}), 8-chloro-N-[(2-chloro-5-methoxyphenyl)sulfonyl]-6-(trifluoromethyl)-imidazo[1,2-a]pyridine-2-carboxamide]", "values": [{"measurement": "crystal form of the resulting material", "setting": "[1]; [7]", "result": "Form A"}]}, {"compound": "Nc1nc2cc(-c3ccc4ncc(C(=O)N5CCOCC5)n4c3)ccc2o1", "note": "[HCl Pattern 2, (6-(2-aminobenzo[d]oxazol-5-yl)imidazo[1,2-a]pyridin-3-yl)(morpholino)methanone]", "values": [{"measurement": "KF", "setting": "[2]", "result": "15.2 % water,"}, {"measurement": "TGA heat / cool experiments: IC", "setting": "[2]; Sample heated to 100°C", "result": 1.6, "unit": "eqsCl"}, {"measurement": "TGA heat / cool experiments: XRPD", "setting": "[2]; Sample heated to 100°C", "result": "Partially crystalline HCl Pattern 2"}, {"measurement": "TGA heat / cool experiments: IC", "setting": "[2]; Sample heated to 140°C", "result": 1.7, "unit": "eqs Cl"}, {"measurement": "TGA heat / cool experiments: XRPD", "setting": "[2]; Sample heated to 140°C", "result": "Partially crystalline HCl Pattern 2"}, {"measurement": "TGA heat / cool experiments", "setting": "[2]; Sample heated to 210°C", "result": "Sample heated to 210°C, decomposition observed"}, {"measurement": "Stability at 40°C/75%RH", "setting": "[2]; XRPD, 3 weeks storage", "result": "No significant changes observed by XRPD after 3 weeks storage"}, {"measurement": "IC", "setting": "[2]; as determined", "result": "1.7 eqs Cl (as determined)"}, {"measurement": "KF", "setting": "[2]; assuming 2 eqs Cl", "result": "corresponding to 4.3 eqs water, assuming 2 eqs Cl"}, {"measurement": "IC", "setting": "[2]; corrected with 15% w/w water content", "result": "2.0 eqs Cl (corrected with 15% w/w water content)"}, {"measurement": "TGA Weight loss", "setting": "[2]; first step, by 100°C", "result": 8, "unit": "%"}, {"measurement": "solubility thermodynamic", "setting": "[2]; pH 1, simulated gastric fluid, SGF (pH1.0)", "result": 2800, "unit": "µg/mL"}, {"measurement": "XRPD (air dried)", "setting": "[2]; scale-up HCl Pattern 2", "result": "New pattern (HCl Pattern 3)"}, {"measurement": "XRPD (vacuum dried)", "setting": "[2]; scale-up HCl Pattern 2", "result": "Crystalline. HCl Pattern 2; also recorded: Slight differences compared to HCl Pattern 2, possibly due to differences in crystallinity"}, {"measurement": "TGA Weight loss", "setting": "[2]; second step, to 140°C", "result": 2.3, "unit": "%"}, {"measurement": "solubility thermodynamic", "setting": "[2]; simulated gastric fluid, 0.1N HCl (pH 0.9)", "result": 3500, "unit": "µg/mL"}, {"measurement": "solubility thermodynamic", "setting": "[2]; Water (pH 1.6)", "result": 1600, "unit": "µg/mL"}, {"measurement": "TGA Weight loss", "setting": "[2]; third step, to 210°C", "result": 8.7, "unit": "%"}, {"measurement": "VH-XRPD", "setting": "[3]; between 45 and 80%RH", "result": "No change was noted between 45 and 80%RH"}, {"measurement": "relative humidity to which the form is stable (VH-XRPD)", "setting": "[3]; complete conversion to HCl Pattern 3 at 0.5%RH, reverted completely by 45%RH", "result": 14, "unit": "%RH"}, {"measurement": "VH-XRPD", "setting": "[3]; lowering humidity, below 25%RH to 0.5%RH", "result": "The material starts to change below 25%RH, with full conversion to HCl Pattern 3 at 0.5%RH."}, {"measurement": "VH-XRPD", "setting": "[3]; raising humidity, 13%RH to 45%RH", "result": "At 13%RH the material starts to revert back to HCl Pattern 2 with complete conversion by 45%RH."}, {"measurement": "heating temperature for conversion to a new pattern (VT-XRPD)", "setting": "[3]; reverted to partially crystalline HCl Pattern 2 upon cooling in air", "result": "above 80 °C"}, {"measurement": "VT-XRPD Heating to 100°C, then cool", "setting": "[3]; scale-up HCl Pattern 2", "result": "Conversion to a new pattern at 80 °C (HCl 3), which returns to less crystalline HCl 2 upon cooling."}, {"measurement": "VT-XRPD Heating to 140°C", "setting": "[3]; scale-up HCl Pattern 2", "result": "Conversion to HCl Pattern 3 at 80 °C that remains unchanged to 120°C, before losing crystallinity at higher temperature"}, {"measurement": "uptake at the end of the analysis (GVS)", "setting": "[4]; 25°C, equating to a tri-hydrate", "result": 10.6, "unit": "wt%"}, {"measurement": "GVS: XRPD after the experiment", "setting": "[4]; at the end of the experiment", "result": "no significant changes noted by XRPD"}, {"measurement": "GVS", "setting": "[4]; below 30%RH", "result": "Further reversible weight toss below 30%RH may indicate lower stoichiometry hydrate."}, {"measurement": "GVS", "setting": "[4]; between 30-40%RH", "result": "Reversible dehydration observed between 30-40%RH."}, {"measurement": "GVS Reversible uptake", "setting": "[4]; between 40-90%RH", "result": "Reversible uptake of ca. 6 wt% between 40-90%RH."}, {"measurement": "relative humidity to which the form appeared to be stable (GVS)", "setting": "[4]; dehydration below 30%, rehydration by 40%", "result": 30, "unit": "%RH"}, {"measurement": "XRPD Result", "setting": "[5]; Solvent DCM (entry -11)", "result": "HCl Pattern 2"}, {"measurement": "XRPD Result", "setting": "[5]; Solvent EtOAc (entry -08)", "result": "HCl Pattern 2"}, {"measurement": "XRPD Result", "setting": "[5]; Solvent EtOH (entry -02)", "result": "HCl Pattern 2"}, {"measurement": "XRPD Result", "setting": "[5]; Solvent IPA (10% water) (entry -06)", "result": "HCl Pattern 2"}, {"measurement": "XRPD Result", "setting": "[5]; Solvent IPA (entry -03)", "result": "HCl Pattern 2"}, {"measurement": "XRPD Result", "setting": "[5]; Solvent MEK (entry -09)", "result": "HCl Pattern 2"}, {"measurement": "XRPD Result", "setting": "[5]; Solvent MeCN (entry -05)", "result": "HCl Pattern 2"}, {"measurement": "XRPD Result", "setting": "[5]; Solvent MeOH (entry -01)", "result": "HCl Pattern 2"}, {"measurement": "XRPD Result", "setting": "[5]; Solvent Nitromethane (entry -12)", "result": "HCl Pattern 2"}, {"measurement": "XRPD Result", "setting": "[5]; Solvent TBME (entry -10)", "result": "HCl Pattern 2"}, {"measurement": "XRPD Result", "setting": "[5]; Solvent THF (5% water) (entry -07)", "result": "HCl Pattern 2"}, {"measurement": "XRPD Result", "setting": "[5]; Solvent THF (entry -04)", "result": "HCl Pattern 2"}, {"measurement": "form by XRPD after polymorph assessment", "setting": "[5]; freeze-dried material, 20 vols solvent, heat/cool cycles RT to 50°C for three days", "result": "known form HCl Pattern 2"}]}, {"compound": "COc1ccc(Cl)c(S(=O)(=O)NC(=O)c2cn3cc(C(F)(F)F)cc(Cl)c3n2)c1", "note": "[mixed Forms A and B, 8-chloro-N-[(2-chloro-5-methoxyphenyl)sulfonyl]-6-(trifluoromethyl)-imidazo[1,2-a]pyridine-2-carboxamide]", "values": [{"measurement": "crystal form of the resulting material", "setting": "[1]; slurry in deionized water stirred at 25 °C for about 168 hours", "result": "Form A"}]}, {"compound": "Cc1ccc(S(=O)(=O)O)cc1.Nc1[nH]ncc1-c1cc(Cl)ccc1Oc1cc(F)c(S(=O)(=O)Nc2cscn2)cc1Cl", "note": "[tosylate salt, 4-[2-(5-amino-1 H-pyrazol-4-yl)-4-chlorophenoxy]-5-chloro-2-fluoro-N-(1,3-thiazol-4-yl)benzenesulfonamide tosylate]", "values": [{"measurement": "aqueous solubility", "setting": "[6]", "result": "good aqueous solubility"}, {"measurement": "stability with regard to disassociation", "setting": "[6]; compared with other salts", "result": "greater stability"}, {"measurement": "chemical stability", "setting": "[6]; in particular with regard to formulation and storage", "result": "improved chemical stability over the free base"}]}]}
